Assay results as given in patent US12465614B2, “Budesonide 21-phosphate salts and pharmaceutical compositions containing the same” (GENETIC S.P.A., priority 2020, dated 2025).
Entries after “also recorded” stand apart in the source; their conditions may differ.

What was measured:
Type in all cases: in vivo
[1] = tested on: OVA-sensitized mice; assay: Bronchial relaxation to salbutamol, isolated bronchi of OVA-sensitized mice (Experimental Groups I); conditions: 1 mg/Kg i.p.; rings precontracted with carbachol; vs OVA group; FIG. 10B
[2] = tested on: OVA-sensitized mice; conditions: mouse, in vivo
[3] = tested on: IgE; assay: Plasma IgE levels in OVA-sensitized mice, ELISA (Experimental Groups I); conditions: 1 mg/Kg i.p.; vs OVA group; FIG. 10 panel C
Description: Female Balb/c (8-week-old, Charles River, Calco, Italy) were housed in the animal care facility of the Department of Pharmacy of the University of Naples, Italy in a controlled environment (temperature 21±2° C. and humidity 60±10%) and provided with standard rodent chow and water. All animals were allowed to acclimate for four days prior to experiments and were subjected to 12 h light−12 h dark schedule. Experiments were conducted during the light phase. The experimental procedures were approved by the Italian Ministry according to International and National law and policies (EU Directive 2010/63/EU and Italian DL 26/2014 for animal experiments). […] The compounds were dissolved in DMSO (Sigma Chemical Co., St. Louis, MO) at concentrations at which the determined dose per animal results from the intraperitoneal administration of 100 μl of solution (1:10 DMSO) and intra-nasal (i.n.) administration of 10 μl/animal (5 μl/nostril) of the solutions. […] Plasma levels of IgE were measured as index of sensitization. […] Total IgE levels were measured by means of ELISA using matched antibody pairs (BD Biosciences Pharmingen San Jose, CA).

[4] = tested on: mice with OVA-induced allergic asthma; assay: Lung hyperreactivity/Penh function, whole body plethysmography, intra-nasal FB, F, B (Experimental Groups II); conditions: i.n. daily 2 weeks, all tested doses: FB 0.3, 1.0, 3.0 nmol/animal, vs untreated OVA group
[5] = tested on: mice with OVA-induced allergic asthma; assay: BAL fluid cell counts (Experimental Groups II); conditions: for total leukocytes in BAL fluid: vs untreated OVA group
Description: (§1) Male Balb/c SPF mice (25*2 g, 6-week-old) were purchased from the animal house facilities at the São Paulo School of Medicine (Federal University of São Paulo, Brazil). They were group-housed in a temperature-controlled room at 22° C. with a 12/12-hour light/dark cycle and allowed free access to food and water. The study is in agreement with the Ethical Principles for Animal Research established by the Brazilian College for Animal Experimentation (COBEA). According to the internal laboratory rules, euthanasia is performed if severe distress related to the test agents developed during the experiment. […] The compounds were dissolved in DMSO (Sigma Chemical Co., St. Louis, MO) at concentrations at which the determined dose per animal results from the intraperitoneal administration of 100 μl of solution (1:10 DMSO) and intra-nasal (i.n.) administration of 10 μl/animal (5 μl/nostril) of the solutions. Mice were sensitized with two subcutaneous injections of 0.4 ml of OVA/Al(OH)3, with an interval of 7 days (Sham animals received the Al(OH)3 suspension in PBS with no OVA). Seven days after the second sensitization (i.e., 3rd week), the animals were nebulized twice a week with the 1% OVA solution (Sham and untreated OVA groups were nebulized with PBS) during 20 minutes for the next 2 weeks. Sixty minutes before the challenges (OVA nebulization) and daily during the next 4 weeks, mice were intra-nasally treated (10 μl/animal as 5 μl/nostril) with the respective compounds/vehicle. After Penh evaluation, the mice were anesthetized with inhaled isofluorane (5% v/v in O2) and blood samples were collected from the descending abdominal aorta. The mice were then euthanized by exsanguination (blood samples were collected from each animal for leukocyte cell counting), and bronchoalveolar lavage (BAL) was performed by exposing and cannulating the trachea with a polyethylene tube (1 mm outer diameter) connected to a syringe. The lungs were washed by flushing 300 μL of heparin-containing PBS solution (20 Ul/mL). The retrieved BAL lavage aliquots were obtained, and the same procedure was repeated four additional times. The samples were submitted to centrifugation (1000 g for 10 min) and the cell pellet was resuspended in 200 μL of PBS solution. Total cell counts were determined using a Neubauer chamber, and differential counting was carried out in cytospin (Fanem Mod 2400; São Paulo, Brazil) preparations stained with May-Grünwald dye. Leukocytes were classified based on normal morphological criteria.

[6] = tested on: mice with OVA-induced allergic asthma; assay: Circulating leukocyte cell counts (Experimental Groups II)
Description: as §1

[7] = i.n., all treatments: FB 0.3, 1.0, 3.0 nmol/animal, F and B 3.0 nmol/animal

For `COc1ccc(CC(C)NCC(O)c2ccc(O)c(NC=O)c2)cc1` (stereo not shown) [F, N-[2-hydroxy-5-[1-hydroxy-2-[[2-(p-methoxyphenyl)-2-propy]-amino]-ethyl]-phenyl]-formamide, reference compound], the “bronchial relaxation to salbutamol” value [1] was “did not ameliorate the lack of bronchial response to salbutamol”.
For “Budesonide 21-phosphate formoterol salt [FB]”, the “bronchial hyperreactivity (increased response of isolated bronchi to carbachol)” value [2] was “Significant reduction of the bronchial hyperreactivity”, the “bronchial relaxation to salbutamol” value [1] was “significantly increased bronchial relaxation” and the “OVA induced increase of IgE plasma levels” value [3] was “significantly reduced OVA induced increase of IgE plasma levels”. For the same compound, the “area under the Penh-metacholine concentration curve (AUC)” value ([4]; B 3.0 nmol/animal) was “significantly reduced Penh at all the MCh doses tested; also recorded: abolished”, the “Penh maximal response Emax to inhaled metacholine” value ([4]; F and B 3.0 nmol/animal) was “Significant reduction of the maximal response Emax; also recorded: abolished” and the “total leukocytes in BAL fluid” value ([5]; 0.3 nmol/animal i.n.) was “significantly reduced”. The “OVA-induced increase of BAL macrophages” value ([5]; 3 nmol/animal i.n.) was “abolished the OVA-induced increase of BAL macrophages”, the “total leukocytes in BAL fluid” value ([5]; 3 nmol/animal i.n.) was “significantly reduced” and the “eosinophils in BAL samples” value [5, 7] was “significantly controlled”. For the same compound, the circulating macrophages ([6]; 0.3 nmol/animal i.n.) was “potent lowering effect”, the “total leukocytes in blood samples” value ([6]; 3 nmol/animal i.n., vs untreated OVA group) was “significantly reduced; also recorded: almost abolished” and the circulating lymphocytes ([6]; 3 nmol/day i.n., vs untreated allergic animals) was “lower number of circulating cells than the untreated allergic animals”. For the same compound, the “circulating eosinophils vs control Sham animals” value ([6]; highest dose (3 nmol/animal i.n.)) was “even lower than in the control Sham animals”, the circulating macrophages ([6]; i.n., FB all tested doses (0.3, 1.0, 3.0 nmol/animal), B and F 3 nmol/animal) was “significantly reduced the number of macrophages; also recorded: reduced the number of these cells to values lower than those observed in the control animals” and the circulating eosinophils [6, 7] was “decreased by FB treatment at all the tested doses”.
